{
  "source": "patent US12697331B2",
  "about": "“Methods of use of T-type calcium channel modulators” (PRAXIS PRECISION MEDICINES, INC., priority 2020, dated 2026)",
  "key": {"[1]": {"biological_target": "T1, hCav3.2 (Homo sapiens, UniProt O95180)", "T1 construct": "expressed in transfected cells; host or cells: HEK-293 (cultured under G418 selection)", "T1 sequence (O95180 whole entry, canonical isoform)": "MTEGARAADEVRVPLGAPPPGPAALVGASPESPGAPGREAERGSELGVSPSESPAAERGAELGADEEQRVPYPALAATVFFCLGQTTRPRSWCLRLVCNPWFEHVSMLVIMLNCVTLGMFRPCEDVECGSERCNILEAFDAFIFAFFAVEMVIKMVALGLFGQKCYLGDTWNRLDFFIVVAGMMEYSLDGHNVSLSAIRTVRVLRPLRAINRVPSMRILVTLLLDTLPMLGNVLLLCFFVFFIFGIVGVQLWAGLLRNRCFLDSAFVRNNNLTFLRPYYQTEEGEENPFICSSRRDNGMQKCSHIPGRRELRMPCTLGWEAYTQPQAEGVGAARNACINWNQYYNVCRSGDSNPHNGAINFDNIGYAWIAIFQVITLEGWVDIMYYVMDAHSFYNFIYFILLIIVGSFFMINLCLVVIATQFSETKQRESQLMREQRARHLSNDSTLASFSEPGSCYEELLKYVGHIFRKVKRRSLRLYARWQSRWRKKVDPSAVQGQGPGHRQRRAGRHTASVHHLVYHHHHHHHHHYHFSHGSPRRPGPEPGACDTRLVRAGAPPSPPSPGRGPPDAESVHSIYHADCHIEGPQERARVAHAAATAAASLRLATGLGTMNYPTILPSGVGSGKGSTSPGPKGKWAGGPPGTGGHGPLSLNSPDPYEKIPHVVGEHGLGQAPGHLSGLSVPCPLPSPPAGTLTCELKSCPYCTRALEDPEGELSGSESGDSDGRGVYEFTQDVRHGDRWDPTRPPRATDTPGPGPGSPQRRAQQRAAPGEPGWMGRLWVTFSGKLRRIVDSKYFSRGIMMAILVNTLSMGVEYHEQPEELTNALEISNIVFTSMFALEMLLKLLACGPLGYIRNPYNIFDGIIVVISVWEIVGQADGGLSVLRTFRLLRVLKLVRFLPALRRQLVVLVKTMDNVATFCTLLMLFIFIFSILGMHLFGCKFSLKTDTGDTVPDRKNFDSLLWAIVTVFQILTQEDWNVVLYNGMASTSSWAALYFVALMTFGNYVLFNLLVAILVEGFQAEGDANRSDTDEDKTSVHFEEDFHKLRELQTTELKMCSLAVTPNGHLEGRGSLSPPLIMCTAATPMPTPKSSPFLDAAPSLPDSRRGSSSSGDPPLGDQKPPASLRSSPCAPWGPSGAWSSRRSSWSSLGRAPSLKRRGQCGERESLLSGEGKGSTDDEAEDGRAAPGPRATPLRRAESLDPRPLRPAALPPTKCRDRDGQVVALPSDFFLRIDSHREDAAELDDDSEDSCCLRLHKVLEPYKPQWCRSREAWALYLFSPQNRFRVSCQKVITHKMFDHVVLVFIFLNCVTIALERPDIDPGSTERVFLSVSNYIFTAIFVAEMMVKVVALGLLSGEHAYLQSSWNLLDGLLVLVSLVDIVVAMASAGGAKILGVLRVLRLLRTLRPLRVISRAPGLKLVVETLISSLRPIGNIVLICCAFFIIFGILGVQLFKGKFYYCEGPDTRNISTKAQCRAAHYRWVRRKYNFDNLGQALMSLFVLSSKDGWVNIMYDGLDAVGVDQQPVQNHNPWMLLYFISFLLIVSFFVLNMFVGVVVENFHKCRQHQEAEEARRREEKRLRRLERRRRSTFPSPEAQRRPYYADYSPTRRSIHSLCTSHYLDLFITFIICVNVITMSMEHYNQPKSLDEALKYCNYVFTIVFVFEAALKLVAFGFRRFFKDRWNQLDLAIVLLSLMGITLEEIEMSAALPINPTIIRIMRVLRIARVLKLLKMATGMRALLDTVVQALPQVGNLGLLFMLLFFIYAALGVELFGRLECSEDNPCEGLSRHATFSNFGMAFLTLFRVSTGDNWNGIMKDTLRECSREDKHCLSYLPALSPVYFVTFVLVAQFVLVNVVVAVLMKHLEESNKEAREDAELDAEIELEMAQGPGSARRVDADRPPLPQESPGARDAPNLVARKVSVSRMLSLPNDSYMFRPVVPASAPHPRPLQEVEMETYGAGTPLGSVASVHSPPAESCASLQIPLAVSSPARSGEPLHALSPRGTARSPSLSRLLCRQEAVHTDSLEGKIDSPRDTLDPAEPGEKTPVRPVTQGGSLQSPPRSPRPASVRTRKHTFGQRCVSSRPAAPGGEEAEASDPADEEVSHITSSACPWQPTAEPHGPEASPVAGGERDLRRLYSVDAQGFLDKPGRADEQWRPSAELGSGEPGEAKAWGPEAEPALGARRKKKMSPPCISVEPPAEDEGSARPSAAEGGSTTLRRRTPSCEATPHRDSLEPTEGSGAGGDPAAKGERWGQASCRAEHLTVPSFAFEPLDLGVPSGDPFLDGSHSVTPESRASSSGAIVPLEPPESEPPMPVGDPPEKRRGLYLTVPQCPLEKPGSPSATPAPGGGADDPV", "experiment": "PatchXpress patch clamp, tonic block (resting state, -120 mV)", "type": "cell-based", "method": "(§1) The voltage dependence of calcium channel isoforms was determined by comparing the activity of resting (Tonic Block) and half-inactivated (Voltage Dependent Block) voltages across various concentrations of Formula (II). First, HEK-293 cells containing hCav3.1, hCav3.2, or hCav3.3 calcium channel isoforms were prepared by seeding at 2×10^6 cells per flask in culture for 2 days; the cells were then harvested at about 6×10^6 cells. Harvested cells were washed once in DPBS for approximately 30 minutes, and 1 mL of 1× (0.05%) Trypsin-EDTA was added, swirled, and allowed to sit on the cells for approximately 4 minutes. 10 mL of warmed DMEM high glucose media supplemented with 10% fetal bovine serum, 2 mM sodium pyruvate, 10 mM HEPES, and 400 μg/mL G418 was added, and the cells were triturated until a single cell suspension was […]. Cells were placed in a 250 mL centrifuge tube with 30 mL warmed media and gently rocked at 28° C. for approximately 1 hour. Cell aliquots of 5 mLs (1×10^6 cells) were then centrifuged at 100× for 2 minutes, and supernatant was removed. Next, 100 μl of external recording solution was added to the remaining cell pellet and triturated 20 times to achieve a single cell suspension.\n(§2) Immediately prior to assay, Formula (II) was diluted with DMSO to 300× the designated final concentration. All studies were performed using the Molecular Devices PatchXpress automated patch clamp platform at room temperature.\n(§3) To determine the hCav3.1, hCav3.2, and hCav3.3 peak current from a resting, closed state (tonic block), currents were evokes by depolarizing pulses to −25 mV (10 ms) from −120 mV (a non-inactivated holding potential) at a frequency of 0.1 Hz. Peak current was defined as the peak inward current during Epoch 1 with no leak subtraction applied. Current stability was monitored, and the potency of each compound was determined using concentration response curves.\n(§4) Pharmacology was measured during Epoch 1. Percent inhibition was calculated as: 100*((([Step 2+Step 5]/2)−Step 3)/(Step 2+Step 5/2)), wherein Step 2 is the peak current measured at baseline, Step 5 is the current measured during the wash period, and Step 3 is the peak current measured during application of the compound. The average of the final 3 consecutive currents in each experimental procedure was used for all calculations. The concentration response curve was fit with a Hill equation to derive IC50, slope, minimum response, and maximum response fitting parameters."}, "[2]": {"biological_target": "T2, hCav3.3 (Homo sapiens, UniProt Q9P0X4)", "T2 construct": "expressed in transfected cells; host or cells: HEK-293 (cultured under G418 selection)", "T2 sequence (Q9P0X4 whole entry)": "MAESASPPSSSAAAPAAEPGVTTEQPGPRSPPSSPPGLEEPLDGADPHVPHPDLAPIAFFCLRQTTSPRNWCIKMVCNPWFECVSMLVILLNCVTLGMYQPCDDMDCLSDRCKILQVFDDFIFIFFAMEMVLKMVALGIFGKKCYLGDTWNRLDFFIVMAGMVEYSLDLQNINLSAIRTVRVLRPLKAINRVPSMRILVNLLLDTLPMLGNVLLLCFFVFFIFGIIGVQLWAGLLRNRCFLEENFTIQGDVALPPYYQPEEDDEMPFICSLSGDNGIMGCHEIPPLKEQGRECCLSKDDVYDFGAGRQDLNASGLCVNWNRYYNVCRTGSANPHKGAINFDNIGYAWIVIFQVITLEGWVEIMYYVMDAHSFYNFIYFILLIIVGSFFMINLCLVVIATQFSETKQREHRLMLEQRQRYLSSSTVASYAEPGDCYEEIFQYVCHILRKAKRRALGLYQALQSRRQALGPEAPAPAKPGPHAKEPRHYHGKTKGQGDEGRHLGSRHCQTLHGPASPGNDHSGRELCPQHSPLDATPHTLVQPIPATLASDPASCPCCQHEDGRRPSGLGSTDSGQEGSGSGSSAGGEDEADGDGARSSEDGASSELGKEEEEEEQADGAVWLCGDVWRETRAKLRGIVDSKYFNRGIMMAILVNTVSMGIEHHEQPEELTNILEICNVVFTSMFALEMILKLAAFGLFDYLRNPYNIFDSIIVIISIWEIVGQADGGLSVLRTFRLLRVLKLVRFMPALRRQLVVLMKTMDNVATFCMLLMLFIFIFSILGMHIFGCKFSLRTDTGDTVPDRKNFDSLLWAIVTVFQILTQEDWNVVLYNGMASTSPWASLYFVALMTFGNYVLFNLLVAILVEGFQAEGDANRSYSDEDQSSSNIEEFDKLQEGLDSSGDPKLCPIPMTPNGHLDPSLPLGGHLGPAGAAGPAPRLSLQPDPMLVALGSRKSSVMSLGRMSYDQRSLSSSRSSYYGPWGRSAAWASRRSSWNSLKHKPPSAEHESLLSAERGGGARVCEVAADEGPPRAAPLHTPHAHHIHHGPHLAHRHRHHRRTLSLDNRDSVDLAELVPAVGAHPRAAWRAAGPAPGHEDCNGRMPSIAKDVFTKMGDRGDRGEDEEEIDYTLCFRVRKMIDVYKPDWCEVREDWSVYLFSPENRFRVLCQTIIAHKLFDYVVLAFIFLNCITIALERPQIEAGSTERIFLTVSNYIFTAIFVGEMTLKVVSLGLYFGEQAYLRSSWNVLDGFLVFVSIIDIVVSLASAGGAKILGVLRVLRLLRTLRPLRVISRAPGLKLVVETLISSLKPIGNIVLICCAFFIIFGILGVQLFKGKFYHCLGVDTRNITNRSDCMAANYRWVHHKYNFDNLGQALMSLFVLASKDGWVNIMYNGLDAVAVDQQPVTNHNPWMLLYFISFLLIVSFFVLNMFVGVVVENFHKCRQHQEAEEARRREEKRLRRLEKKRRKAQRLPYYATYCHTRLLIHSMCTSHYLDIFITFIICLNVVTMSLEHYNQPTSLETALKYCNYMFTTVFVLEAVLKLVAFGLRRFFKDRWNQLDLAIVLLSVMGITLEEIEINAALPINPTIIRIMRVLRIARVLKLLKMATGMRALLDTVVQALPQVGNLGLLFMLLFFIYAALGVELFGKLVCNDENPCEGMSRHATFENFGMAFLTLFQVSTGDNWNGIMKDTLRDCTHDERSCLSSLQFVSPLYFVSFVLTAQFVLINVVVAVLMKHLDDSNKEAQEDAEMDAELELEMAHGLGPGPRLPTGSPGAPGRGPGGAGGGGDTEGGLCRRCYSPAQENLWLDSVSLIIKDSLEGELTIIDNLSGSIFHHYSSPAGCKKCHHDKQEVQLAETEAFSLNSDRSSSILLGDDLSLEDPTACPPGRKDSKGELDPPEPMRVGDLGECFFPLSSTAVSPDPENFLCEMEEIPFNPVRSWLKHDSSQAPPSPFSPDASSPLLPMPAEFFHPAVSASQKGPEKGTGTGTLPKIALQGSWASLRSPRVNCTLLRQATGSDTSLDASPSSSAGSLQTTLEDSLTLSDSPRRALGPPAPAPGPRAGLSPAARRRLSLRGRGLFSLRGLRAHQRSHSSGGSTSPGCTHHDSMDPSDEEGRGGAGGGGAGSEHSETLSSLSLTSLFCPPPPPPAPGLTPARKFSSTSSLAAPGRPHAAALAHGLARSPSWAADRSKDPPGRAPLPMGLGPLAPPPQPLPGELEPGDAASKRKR", "experiment": "PatchXpress patch clamp, tonic block (resting state, -120 mV)", "type": "cell-based", "method": "as §1, §2, §3, §4"}, "[3]": {"tested_on": "NREM sigma, EO and EC gamma absolute power", "experiment": "Population PKPD modelling of EEG power versus model-predicted plasma concentration (NONMEM)", "type": "in vivo, human", "method": "The pharmacokinetic/pharmacodynamic (PKPD) effects of administration a compound of formula (II) on EEG were also evaluated. The recording of the NREM sigma absolute power was reported as a single summary value of a single night of sleep following each dose on pre-specified days (baseline and Days 4, 8 and 12 for Example 11, Part A and Days 10, 17, 24, and 31 for Part B, as set forth in Tables 22 and 23, above. Each NREM sigma absolute power value was paired with a model predicted average plasma concentration (Cave) that corresponded to the 24-hour EEG recording period on the respective study day. For example, if the period of EEG recording for an individual was from 6 am on Day 4 to 6 am on Day 5, then the corresponding Cave was calculated as the average of the individual's model-predicted concentrations (sampled every 30 minutes) from that same time period. The resulting PKPD data were analyzed in a mixed-effects modelling framework using NONlinear Mixed Effects Modeling (NONMEM) software. The change from baseline NREM sigma absolute power was specified as the outcome and the primary explanatory variable was the Cave of a compound of formula (II).\nThe eyes open (EO) and eyes closed (EC) gamma absolute power for each individual was also estimated at specific time points across the study days.\nThe population PK model was used to generate Cave for NREM sigma absolute power and concentrations for EO and EC gamma absolute power. For NREM sigma absolute power, the Cave was computed for the final day of each dose level over the EEG collection interval. For EO and EC gamma absolute power, concentrations at 4 hours post-dose and 23.75 hours post-dose were generated on the final day of each dose level. The final population PKPD models for NREM sigma absolute power and EO and EC gamma absolute power were then used to generate corresponding EEG responses."}},
  "note": "Where a name gives a salt, the structure may show the parent alone.",
  "data": [
    {"smiles": "CC(C)(C)NC(=O)CN1CCC(CNC(=O)c2cc(F)cc(Cl)c2)CC1", "note": "[compound of formula (II), N-((1-(2-(tert-butylamino)-2-oxoethyl)piperidin-4-yl)methyl)-3-chloro-5-fluorobenzamide hydrochloride]", "values": [
      {"measurement": "Inhibition of peak current, tonic block, Mean", "setting": "[1]; 0.09 μm", "result": "12.6 (4) %"},
      {"measurement": "Inhibition of peak current, tonic block, Mean", "setting": "[1]; 0.27 μm", "result": "37.1 (6) %"},
      {"measurement": "Inhibition of peak current, tonic block, Mean", "setting": "[1]; 0.91 μm", "result": "55.1 (13) %"},
      {"measurement": "Inhibition of peak current, tonic block, Mean", "setting": "[1]; 2.74 μm", "result": 76.2, "unit": "%"},
      {"measurement": "Inhibition of peak current, tonic block, Mean", "setting": "[1]; 9.13 μm", "result": 89.7, "unit": "%"},
      {"measurement": "Inhibition of peak current, tonic block, Mean", "setting": "[1]; 27.40 μm", "result": 96.9, "unit": "%"},
      {"measurement": "Inhibition of peak current, tonic block, Mean", "setting": "[1]; 91.33 μm", "result": 98.2, "unit": "%"},
      {"measurement": "Inhibition of peak current, tonic block, Mean", "setting": "[2]; 0.09 μm", "result": "3.8 (7) %"},
      {"measurement": "Inhibition of peak current, tonic block, Mean", "setting": "[2]; 0.27 μm", "result": "23.0 (11) %"},
      {"measurement": "Inhibition of peak current, tonic block, Mean", "setting": "[2]; 0.91 μm", "result": "54.5 (5) %"},
      {"measurement": "Inhibition of peak current, tonic block, Mean", "setting": "[2]; 2.74 μm", "result": "77.1 (6) %"},
      {"measurement": "Inhibition of peak current, tonic block, Mean", "setting": "[2]; 9.13 μm", "result": "92.1 (5) %"},
      {"measurement": "Inhibition of peak current, tonic block, Mean", "setting": "[2]; 27.40 μm", "result": "94.6 (5) %"},
      {"measurement": "Cave at which maximum reduction in NREM sigma absolute power appeared to occur", "setting": "[3]; model predicted average plasma concentration, titrated", "result": "greater than 180 ng/mL"},
      {"measurement": "C(t) at which maximum reduction in EC gamma absolute power appeared to occur", "setting": "[3]; titrated up to 120 mg", "result": "> 300", "unit": "ng/mL"},
      {"measurement": "C(t) at which maximum reduction in EO gamma absolute power appeared to occur", "setting": "[3]; titrated up to 120 mg", "result": "> 300", "unit": "ng/mL"}
    ]}
  ]
}
